# Reference: patent US12435059B2, “AMP-activated protein kinase inhibitors and methods of making and using the same” (The Regents of the University of Colorado, priority 2019, dated 2025)
# Key:
# Test in all cases: biochemical
# Format in all cases: binding
# 468 kinases [1] = target: 468 kinases (Homo sapiens, UniProt O94921); conditions: PFTK1; read-out: % Inhibition @ 100 nM
# 468 kinases [2] = target: 468 kinases (Homo sapiens, UniProt Q8N752); conditions: CSNK1A1L; read-out: % Inhibition @ 100 nM
# 468 kinases [3] = target: 468 kinases (Homo sapiens, UniProt Q8IY84); conditions: NIMI; read-out: % Inhibition @ 100 nM
# 468 kinases [4] = target: 468 kinases (Homo sapiens, UniProt Q9H1R3); conditions: MYLK2; read-out: % Inhibition @ 100 nM
# 468 kinases (Homo sapiens, UniProt Q9H1R3), sequence (Q9H1R3 2-596 limits assumed): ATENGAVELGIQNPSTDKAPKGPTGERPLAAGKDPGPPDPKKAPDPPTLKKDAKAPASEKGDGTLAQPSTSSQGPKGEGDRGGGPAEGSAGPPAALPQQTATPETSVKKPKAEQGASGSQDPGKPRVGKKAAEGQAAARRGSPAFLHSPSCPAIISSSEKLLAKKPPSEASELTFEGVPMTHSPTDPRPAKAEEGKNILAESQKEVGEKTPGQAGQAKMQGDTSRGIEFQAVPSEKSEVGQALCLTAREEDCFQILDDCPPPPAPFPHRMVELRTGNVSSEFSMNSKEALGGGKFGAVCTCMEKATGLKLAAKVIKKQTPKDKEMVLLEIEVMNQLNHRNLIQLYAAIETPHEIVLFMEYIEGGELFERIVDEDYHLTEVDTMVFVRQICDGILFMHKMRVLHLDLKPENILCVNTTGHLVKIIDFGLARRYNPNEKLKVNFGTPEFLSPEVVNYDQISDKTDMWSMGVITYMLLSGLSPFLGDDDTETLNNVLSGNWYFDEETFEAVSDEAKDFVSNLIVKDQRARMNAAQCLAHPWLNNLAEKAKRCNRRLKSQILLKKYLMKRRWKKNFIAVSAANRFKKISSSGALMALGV
# 468 kinases [5] = target: 468 kinases (Homo sapiens, UniProt Q13470); conditions: TNK1; read-out: % Inhibition @ 100 nM
# 468 kinases [6] = target: 468 kinases (Homo sapiens, UniProt Q08345); conditions: DDR1; read-out: % Inhibition @ 100 nM
# 468 kinases (Homo sapiens, UniProt Q08345), sequence (Q08345 19-913 limits assumed): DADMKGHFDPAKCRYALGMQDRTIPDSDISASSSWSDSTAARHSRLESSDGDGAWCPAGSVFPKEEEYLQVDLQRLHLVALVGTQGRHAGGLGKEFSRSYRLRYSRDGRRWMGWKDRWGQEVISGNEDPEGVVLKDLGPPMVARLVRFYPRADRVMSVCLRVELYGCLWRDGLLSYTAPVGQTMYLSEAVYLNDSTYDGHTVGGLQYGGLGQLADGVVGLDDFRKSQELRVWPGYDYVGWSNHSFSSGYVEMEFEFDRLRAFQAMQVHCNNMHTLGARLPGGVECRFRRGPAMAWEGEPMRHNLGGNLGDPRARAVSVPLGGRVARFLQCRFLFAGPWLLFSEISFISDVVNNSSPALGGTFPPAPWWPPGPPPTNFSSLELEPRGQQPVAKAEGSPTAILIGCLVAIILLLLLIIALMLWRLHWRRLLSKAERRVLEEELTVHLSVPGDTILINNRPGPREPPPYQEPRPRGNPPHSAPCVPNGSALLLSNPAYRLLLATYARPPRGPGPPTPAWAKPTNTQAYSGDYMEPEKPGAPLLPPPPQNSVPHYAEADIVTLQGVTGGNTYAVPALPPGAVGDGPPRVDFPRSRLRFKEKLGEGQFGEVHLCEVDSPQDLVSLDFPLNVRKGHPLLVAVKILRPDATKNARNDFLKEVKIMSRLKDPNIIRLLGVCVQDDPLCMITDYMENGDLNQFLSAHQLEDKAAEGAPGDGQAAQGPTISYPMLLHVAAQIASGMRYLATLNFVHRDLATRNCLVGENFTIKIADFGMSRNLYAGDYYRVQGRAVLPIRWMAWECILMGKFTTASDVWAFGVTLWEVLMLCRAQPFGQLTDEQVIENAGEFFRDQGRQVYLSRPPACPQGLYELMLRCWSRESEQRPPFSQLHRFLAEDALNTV
# 468 kinases [7] = target: 468 kinases (Homo sapiens, UniProt P00519, Y253F); conditions: ABL1 (Y253F)-phosphorylated; read-out: % Inhibition @ 100 nM
compound,measurement,setting,value
"CCN(CC)CCNC(=O)c1c(C)[nH]c(/C=C2\C(=O)Nc3ccc(CCC(N)=O)cc32)c1C [Compound No. 16, (Z)-5-((5-(3-Amino-3-oxopropyl)-2-oxoindolin-3-ylidene)methyl)-N-(2-(diethylamino)ethyl)-2,4-dimethyl-1H-pyrrole-3-carboxamide]",inhibition at 0.1 µM,468 kinases [1],13%
same,inhibition at 0.1 µM,468 kinases [2],6%
same,inhibition at 0.1 µM,468 kinases [3],67%
same,inhibition at 0.1 µM,468 kinases [4],4%
"CCN(CC)CCNC(=O)c1c(C)[nH]c(/C=C2\C(=O)Nc3ccc(CCO)cc32)c1C [Compound No. 10, (Z)—N-(2-(Diethylamino)ethyl)-5-((5-(2-hydroxyethyl)-2-oxoindolin-3-ylidene)methyl)-2,4-dimethyl-1H-pyrrole-3-carboxamide]",inhibition at 0.1 µM,468 kinases [5],9%
same,inhibition at 0.1 µM,468 kinases [6],0%
same,inhibition at 0.1 µM,468 kinases [7],5%
